Values of other authors, collected in patent publication US11285184B2, “Cannabidiol alkaline composition” (CHIROSYN DISCOVERY TECHNOLOGIES INC., priority 2018, dated 2022).

Details: CBD dissolved in sulfuric acid/acetic acid

SMILES: C=C(C)[C@@H]1CCC(C)=C[C@H]1c1c(O)cc(CCCCC)cc1O [CBD, 2-[1R-3-methyl-6R-(1-methylethenyl)-2-cyclohexen-1-yl]-5-pentyl-1,3-benzenediol]
- Δ-8-THC formed from CBD: 2%
- Δ-9-THC formed from CBD: 52%
